# Experimental data reported in patent EP2147919A1, “Heterocyclic substituted amides, method for their manufacture and their use as herbicides” (Bayer CropScience Aktiengesellschaft, priority 2008, dated 2010).
# Key:
# [1] = system: ALOMY; assay: Herbicidal action pre-emergence (greenhouse pot test, visual rating); assay type: in vivo, Alopecurus myosuroides; details: Vorauflauf, 1280 g/ha, visual rating after 3 weeks vs untreated controls
# Source text: (§1) Samen von mono- bzw. dikotylen Unkraut- bzw. Kulturpflanzen werden in Holzfasertöpfen in sandiger Lehmerde ausgelegt und mit Erde abgedeckt. Die in Form von benetzbaren Pulvern (WP) oder als Emulsionskonzentrate (EC) formulierten erfindungsgemäßen Verbindungen werden dann als wäßrige Suspension bzw. Emulsion mit einer Wasseraufwandmenge von umgerechnet 600 bis 800 l/ha unter Zusatz von 0,2% Netzmittel auf die Oberfläche der Abdeckerde appliziert.
# (§2) Nach der Behandlung werden die Töpfe im Gewächshaus aufgestellt und unter guten Wachstumsbedingungen für die Testpflanzen gehalten. Die visuelle Bonitur der Schäden an den Versuchspflanzen erfolgt nach einer Versuchszeit von 3 Wochen im Vergleich zu unbehandelten Kontrollen (herbizide Wirkung in Prozent (%): 100% Wirkung = Pflanzen sind abgestorben, 0 % Wirkung = wie Kontrollpflanzen).
# [2] = system: ECHCG; assay: as above; assay type: in vivo, Echinochloa crus-galli; details: Vorauflauf, 1280 g/ha, visual rating after 3 weeks vs untreated controls
# Source text: as §1, §2
# [3] = system: LOLMU; assay: as above; assay type: in vivo, Lolium multiflorum; details: Vorauflauf, 1280 g/ha, visual rating after 3 weeks vs untreated controls
# Source text: as §1, §2
# [4] = system: SETVI; assay: as above; assay type: in vivo, Setaria viridis; details: Vorauflauf, 1280 g/ha, visual rating after 3 weeks vs untreated controls
# Source text: as §1, §2
# [5] = system: ABUTH; assay: as above; assay type: in vivo, Abutilon theophrasti; details: Vorauflauf, 1280 g/ha, visual rating after 3 weeks vs untreated controls
# Source text: as §1, §2
# [6] = system: AMARE; assay: as above; assay type: in vivo, Amaranthus retroflexus; details: Vorauflauf, 1280 g/ha, visual rating after 3 weeks vs untreated controls
# Source text: as §1, §2
# [7] = system: MATIN; assay: as above; assay type: in vivo, Matricaria inodora; details: Vorauflauf, 1280 g/ha, visual rating after 3 weeks vs untreated controls
# Source text: as §1, §2
# [8] = system: POLCO; assay: as above; assay type: in vivo, Polygonum convolvolus; details: Vorauflauf, 1280 g/ha, visual rating after 3 weeks vs untreated controls
# Source text: as §1, §2
# [9] = system: STEME; assay: as above; assay type: in vivo, Stellaria media; details: Vorauflauf, 1280 g/ha, visual rating after 3 weeks vs untreated controls
# Source text: as §1, §2
# [10] = system: VERPE; assay: as above; assay type: in vivo, Veronica persica; details: Vorauflauf, 1280 g/ha, visual rating after 3 weeks vs untreated controls
# Source text: as §1, §2
# [11] = system: VIOTR; assay: as above; assay type: in vivo, Viola tricolor; details: Vorauflauf, 1280 g/ha, visual rating after 3 weeks vs untreated controls
# Source text: as §1, §2
# [12] = system: Schadpflanzen; assay: Herbicidal action pre-emergence, summary over the weed spectrum; assay type: in vivo; details: Vorauflaufverfahren, Aufwandmenge von 1.28 kg und weniger Aktivsubstanz pro Hektar
# Source text: as §1, §2
# [13] = system: ABUTH; assay: Herbicidal action post-emergence (greenhouse pot test, visual rating); assay type: in vivo, Abutilon theophrasti; details: Nachauflauf, 1280 g/ha, visual rating after ca. 3 weeks vs untreated controls
# Source text: (§3) Samen von mono- bzw. dikotylen Unkraut- bzw. Kulturpflanzen werden in Holzfasertöpfen in sandigem Lehmboden ausgelegt, mit Erde abgedeckt und im Gewächshaus unter guten Wachstumsbedingungen angezogen. 2 bis 3 Wochen nach der Aussaat werden die Versuchspflanzen im Einblattstadium behandelt. Die in Form von benetzbaren Pulvern (WP) oder als Emulsionskonzentrate (EC) formulierten erfindungsgemäßen Verbindungen werden dann als wäßrige Suspension bzw. Emulsion mit einer Wasseraufwandmenge von umgerechnet 600 bis 800 l/ha unter Zusatz von 0,2% Netzmittel auf die grünen Pflanzenteile gesprüht. Nach ca. 3 Wochen Standzeit der Versuchspflanzen im Gewächshaus unter optimalen Wachstumsbedingungen wird die Wirkung der Präparate visuell im Vergleich zu unbehandelten Kontrollen bonitiert (herbizide Wirkung in Prozent (%): 100% Wirkung = Pflanzen sind abgestorben, 0 % Wirkung = wie Kontrollpflanzen).
# [14] = system: AMARE; assay: as above; assay type: in vivo, Amaranthus retroflexus; details: Nachauflauf, 1280 g/ha, visual rating after ca. 3 weeks vs untreated controls
# Source text: as §3
# [15] = system: MATIN; assay: as above; assay type: in vivo, Matricaria inodora; details: Nachauflauf, 1280 g/ha, visual rating after ca. 3 weeks vs untreated controls
# Source text: as §3
# [16] = system: PHBPU; assay: as above; assay type: in vivo, Pharbitis purpurea; details: Nachauflauf, 1280 g/ha, visual rating after ca. 3 weeks vs untreated controls
# Source text: as §3
# [17] = system: STEME; assay: as above; assay type: in vivo, Stellaria media; details: Nachauflauf, 1280 g/ha, visual rating after ca. 3 weeks vs untreated controls
# Source text: as §3
# [18] = system: VERPE; assay: as above; assay type: in vivo, Veronica persica; details: Nachauflauf, 1280 g/ha, visual rating after ca. 3 weeks vs untreated controls
# Source text: as §3
# [19] = system: VIOTR; assay: as above; assay type: in vivo, Viola tricolor; details: Nachauflauf, 1280 g/ha, visual rating after ca. 3 weeks vs untreated controls
# Source text: as §3
# [20] = Log P; assay type: physicochemical
compound,measurement,setting,value
"Cc1cc(OC(C)C)c(C(=O)NC(c2ccc(Cl)cc2)c2ccon2)c(Cl)n1 (racemic) [Beispiel 152, 2-Chlor-N-[(4-chlorphenyl)(isoxazol-3-yl)methyl]-4-isopropoxy-6-methylnicotinamid]",herbizide Wirkung ALOMY,[1],80%
same,herbizide Wirkung ECHCG,[2],90%
same,herbizide Wirkung LOLMU,[3],90%
same,herbizide Wirkung SETVI,[4],100%
same,herbizide Wirkung ABUTH,[5],100%
same,herbizide Wirkung AMARE,[6],100%
same,herbizide Wirkung MATIN,[7],100%
same,herbizide Wirkung POLCO,[8],100%
same,herbizide Wirkung STEME,[9],90%
same,herbizide Wirkung VERPE,[10],100%
same,herbizide Wirkung VIOTR,[11],100%
same,herbizide Wirkung gegen Schadpflanzen,[12],sehr gute herbizide Wirkung
"Cc1cc(OC(C)C)c(C(=O)NC(c2ccc(F)c(F)c2)c2ccon2)c(Cl)n1 (racemic) [Beispiel 174, 2-Chlor-N-[(3,4-difluorphenyl)(isoxazol-3-yl)methyl]-4-isopropoxy-6-methylnicotinamid]",herbizide Wirkung ALOMY,[1],60%
same,herbizide Wirkung ABUTH,[5],100%
same,herbizide Wirkung AMARE,[6],100%
same,herbizide Wirkung MATIN,[7],80%
same,herbizide Wirkung STEME,[9],100%
same,herbizide Wirkung VERPE,[10],100%
same,herbizide Wirkung ABUTH,[13],100%
same,herbizide Wirkung AMARE,[14],100%
same,herbizide Wirkung MATIN,[15],90%
same,herbizide Wirkung PHBPU,[16],80%
same,herbizide Wirkung STEME,[17],100%
same,herbizide Wirkung VERPE,[18],100%
same,herbizide Wirkung VIOTR,[19],80%
same,logP,[20],2.26
"COc1ccc(C(NC(=O)c2cnn(C)c2Cl)c2ccon2)c(F)c1 (racemic) [Beispiel 260, 5-Chlor-N-[(2-fluor-4-methoxyphenyl)(isoxazol-3-yl)methyl]-1-methyl-1 H-pyrazol-4-carboxamid]",logP,[20],1.8
"COc1cccc(C(NC(=O)c2nsc(Cl)c2Cl)c2ccon2)c1 (racemic) [Beispiel 306, 4,5-Dichlor-N-[(3-methoxyphenyl)(isoxazol-3-yl)methyl]isothiazol-3-carboxamid]",logP,[20],3.44
"COc1ccc(C(NC(=O)c2c(OC(C)C)cc(C)nc2Br)c2ccon2)c(F)c1 (centres unmarked) [Beispiel 3, 2-Brom-N-[(2-fluor-4-methoxyphenyl)(isoxazol-3-yl)methyl]-4-isopropoxy-6-methylnicotinamid]",herbizide Wirkung gegen Schadpflanzen,[12],sehr gute herbizide Wirkung
CCCOc1cc(C)nc(Br)c1C(=O)NC(c1ccc(Cl)cc1)c1ccon1 (centres unmarked) [Beispiel 35],logP,[20],2.63
same,herbizide Wirkung gegen Schadpflanzen,[12],sehr gute herbizide Wirkung
Cc1ncc(C(=O)NC(c2ccc(Cl)cc2)c2ccon2)c(C)c1Br (centres unmarked) [Beispiel 131],logP,[20],2.63
COc1ccc(C(NC(=O)c2cnc(C)c(Br)c2C)c2ccon2)c(F)c1 (centres unmarked) [Beispiel 132],logP,[20],2.28
COc1cccc(C(NC(=O)c2c(OC(C)C)cc(C)nc2Br)c2ccon2)c1 (centres unmarked) [Beispiel 158],logP,[20],2.16
CCCOc1cc(C)nc(Br)c1C(=O)NC(c1ccon1)c1ccc(Cl)cc1Cl (centres unmarked) [Beispiel 160],herbizide Wirkung SETVI,[4],90%
same,herbizide Wirkung ABUTH,[5],100%
same,herbizide Wirkung AMARE,[6],100%
same,herbizide Wirkung MATIN,[7],100%
same,herbizide Wirkung POLCO,[8],100%
same,herbizide Wirkung STEME,[9],100%
same,herbizide Wirkung VERPE,[10],100%
same,herbizide Wirkung VIOTR,[11],100%
Cc1cc(Cl)c(C(=O)NC(c2ccc(F)c(F)c2)c2ccon2)c(OC(C)C)n1 (centres unmarked) [Beispiel 164],herbizide Wirkung AMARE,[6],100%
same,herbizide Wirkung POLCO,[8],100%
same,herbizide Wirkung STEME,[9],90%
same,herbizide Wirkung VERPE,[10],100%
same,herbizide Wirkung VIOTR,[11],100%
same,herbizide Wirkung ABUTH,[13],90%
same,herbizide Wirkung AMARE,[14],100%
same,herbizide Wirkung PHBPU,[16],80%
same,herbizide Wirkung VERPE,[18],80%
same,herbizide Wirkung VIOTR,[19],80%
COc1ccc(C(NC(=O)c2c(OC(C)C)cc(C)nc2Cl)c2ccon2)c(F)c1 (centres unmarked) [Beispiel 187],logP,[20],2.18
COc1ccncc1C(=O)NC(c1ccc(Cl)cc1)c1ccon1 (centres unmarked) [Beispiel 188],logP,[20],1.18
COc1ccc(C(NC(=O)c2cnccc2OC)c2ccon2)c(F)c1 (centres unmarked) [Beispiel 189],logP,[20],1
COc1ccncc1C(=O)NC(c1ccc(F)c(F)c1)c1ccon1 (centres unmarked) [Beispiel 190],logP,[20],1.07
O=C(NC(c1ccon1)c1ccc(Cl)cc1Cl)c1ccc(Cl)nc1 (centres unmarked) [Beispiel 201],herbizide Wirkung STEME,[9],100%
same,herbizide Wirkung VERPE,[10],100%
same,herbizide Wirkung VIOTR,[11],100%
Cc1ccc(C(=O)NC(c2ccc(Cl)cc2)c2ccon2)cn1 (centres unmarked) [Beispiel 209],herbizide Wirkung ABUTH,[13],80%
same,herbizide Wirkung STEME,[17],100%
same,herbizide Wirkung VIOTR,[19],80%
COc1ccc(C(NC(=O)c2ccc(C)nc2)c2ccon2)c(F)c1 (centres unmarked) [Beispiel 212],herbizide Wirkung ABUTH,[13],80%
same,herbizide Wirkung AMARE,[14],80%
same,herbizide Wirkung STEME,[17],100%
same,herbizide Wirkung VERPE,[18],80%
CCCOc1cc(C)nc(Cl)c1C(=O)NC(c1cnc(Cl)c(Cl)c1)c1ccon1 (centres unmarked) [Beispiel 221],logP,[20],2.45
Cc1cc(OC(C)C)c(C(=O)NC(c2cnc(Cl)c(Cl)c2)c2ccon2)c(Cl)n1 (centres unmarked) [Beispiel 222],logP,[20],2.37
CCCOc1cc(C)nc(Br)c1C(=O)NC(c1cnc(Cl)c(Cl)c1)c1ccon1 (centres unmarked) [Beispiel 223],logP,[20],2.6
Cc1cc(OC(C)C)c(C(=O)NC(c2cnc(Cl)c(Cl)c2)c2ccon2)c(Br)n1 (centres unmarked) [Beispiel 224],logP,[20],2.51
COc1ccc(C(NC(=O)c2c(C)nn(C)c2Cl)c2ccon2)c(F)c1 (centres unmarked) [Beispiel 261],herbizide Wirkung SETVI,[4],90%
same,herbizide Wirkung AMARE,[6],100%
same,herbizide Wirkung MATIN,[7],100%
same,herbizide Wirkung STEME,[9],100%
same,herbizide Wirkung VERPE,[10],100%
same,herbizide Wirkung ABUTH,[13],80%
same,herbizide Wirkung AMARE,[14],90%
same,herbizide Wirkung MATIN,[15],100%
same,herbizide Wirkung PHBPU,[16],80%
same,herbizide Wirkung STEME,[17],100%
same,herbizide Wirkung VERPE,[18],100%
same,herbizide Wirkung VIOTR,[19],100%
Cn1nc(C(F)(F)F)c(C(=O)NC(c2ccc(Cl)cc2)c2ccon2)c1Cl (centres unmarked) [Beispiel 262],herbizide Wirkung AMARE,[6],100%
same,herbizide Wirkung MATIN,[7],90%
same,herbizide Wirkung STEME,[9],100%
same,herbizide Wirkung VERPE,[10],100%
same,herbizide Wirkung VIOTR,[11],100%
Cc1nn(C)cc1C(=O)NC(c1ccc(Cl)cc1)c1ccon1 (centres unmarked) [Beispiel 265],herbizide Wirkung ABUTH,[5],90%
same,herbizide Wirkung AMARE,[6],100%
same,herbizide Wirkung MATIN,[7],100%
same,herbizide Wirkung STEME,[9],100%
same,herbizide Wirkung VERPE,[10],100%
same,herbizide Wirkung VIOTR,[11],100%
same,herbizide Wirkung ABUTH,[13],100%
same,herbizide Wirkung AMARE,[14],100%
same,herbizide Wirkung MATIN,[15],80%
same,herbizide Wirkung STEME,[17],100%
same,herbizide Wirkung VERPE,[18],100%
same,herbizide Wirkung VIOTR,[19],100%
COc1ccc(C(NC(=O)c2cn(C)nc2C)c2ccon2)c(F)c1 (centres unmarked) [Beispiel 266],herbizide Wirkung STEME,[17],100%
same,herbizide Wirkung VERPE,[18],90%
same,herbizide Wirkung VIOTR,[19],80%
O=C(NC(c1ccc(Cl)cc1)c1ccon1)c1ncn(Cc2ccccc2)c1[N+](=O)[O-] (centres unmarked) [Beispiel 289],logP,[20],2.63
COc1c(C(=O)NC(c2ccc(Cl)cc2)c2ccon2)csc1Br (centres unmarked) [Beispiel 290],logP,[20],3.64
Cc1cc(C(=O)NC(c2ccc(Cl)cc2)c2ccon2)cs1 (centres unmarked) [Beispiel 295],herbizide Wirkung ABUTH,[13],80%
same,herbizide Wirkung MATIN,[15],80%
same,herbizide Wirkung STEME,[17],100%
same,herbizide Wirkung VIOTR,[19],90%
"COc1ccc(C(NC(=S)c2cnn(C)c2Cl)c2ccon2)c(F)c1 (centres unmarked) [Beispiel 312, 5-Chlor-N-[(2-fluor-4-methoxyphenyl)(isoxazol-3-yl)methyl]-1-methyl-1 H-pyrazol-4-carbothioamid]",logP,[20],1.76
"COc1c(C(=S)NC(c2ccc(Cl)cc2)c2ccon2)csc1Br (centres unmarked) [Beispiel 313, 5-Brom-N-[(4-chlorphenyl)(isoxazol-3-yl)methyl]-4-methoxythiophen-3-carbothioamid]",logP,[20],4.51
